The term melting point denotes the temperature, or range, at which the solid turns liquid.

Drawing on a melting point compilation (Tetko et al.), this text covers melting point for 121 compounds.

Take `O=C1c2ccccc2-c2n[nH]c3cccc1c23`: the melting point lay within 236 to 238 °C.
The same measure for `NC(=O)c1cccc(OCC(=O)O)c1`: 206 to 208 °C.
The same measure for `CNC(=Nc1ccnn1C(C)C)c1ccco1`: 233 to 235 °C; for `O=C(O)c1cnc2c(c1)c(=O)[nH]c(=O)n2Cc1ccccc1`: 278 to 280 °C; for `Cc1noc(N)n1`: 161 to 163 °C.
The same measure for `CCOc1ccc(OCc2ccc(C(=O)NN)cc2)cc1`: 127 to 129 °C.
Consider `Cc1ccccc1SC(C(=O)O)c1ccccc1` (stereo unspecified), for which the melting point was in the range of 100 to 102 °C.
The same measure for `Cc1ccccc1-n1c(S)nnc1-c1cccnc1`: 94 to 96 °C; for `NC(=O)CSc1ccccc1N`: 113 to 115 °C; for `NNc1cc(C(F)(F)F)nc(-c2ccccn2)n1`: 169 to 171 °C.
The same measure for `O=C1NCCCCC1Oc1ccc(O)cc1` (stereo unspecified): 219 to 221 °C.
The same measure for `O=S(=O)(Cl)Cc1ccc2ccccc2c1`: 97 to 99 °C.
In turn, `N#Cc1ccc(N2CCC(N)CC2)cc1` registered a melting point of 84 to 86 °C.
The same measure for `Cc1ccc2ncccc2c1Br`: 44 to 46 °C.
With `NCCc1ccc(S(=O)(=O)N2CCCCC2)s1`, the melting point is 74 to 76 °C.
As to `O=C(O)C(=O)NCC(F)F`, the melting point lay within 105 to 107 °C.
Take `CC(=O)c1cc(C#N)c(S)nc1C`: the melting point was 127 to 129 °C.
`COC(=O)c1cc(Cl)ccn1` returned a melting point of 55 to 57 °C.
In the case of `Brc1cnc2c(c1)NCCO2`, the melting point is 149 to 151 °C.
For `COc1cc2c(cc1OC)NCC2` the value was 103 to 105 °C.
In turn, `O=Cc1ccc(Oc2cnccn2)cc1` displayed a melting point of 79 to 81 °C.
For `CCOC(=O)Cc1csc(NC(=O)Cc2ccccc2)n1` the value was 92 to 94 °C; for `Cc1ccc(O)c(S(=O)(=O)N(C)C)c1`, 76 to 78 °C.
For `Cc1cc(S(C)(=O)=O)cc(C(=O)O)c1C` the value was 199 to 201 °C; for `Cc1ccsc1-c1nnc(N)[nH]1`, 189 to 191 °C.
The same measure for `COC(=O)c1csc(S(=O)(=O)Cl)c1`: 54 to 56 °C; for `O=S(=O)(CCN1CCC(O)CC1)c1ccc(Br)cc1`: 117 to 119 °C; for `Cc1ccc(-n2c(N)nc3cc(Br)ccc32)cc1`: 194 to 196 °C.
`COC(=O)c1c(N)sc(C)c1-c1ccc(Cl)cc1Cl` gave a melting point of 94 to 96 °C.
Turning to `Cc1ccc(C(N)=O)n1C`, the melting point is 152 to 154 °C.
The same measure for `NC(=O)NCCCC(=O)O`: 171 to 173 °C.
In the case of `Cc1cc2nc(Cl)c3ccccc3n2n1`, the melting point lay in the range of 138 to 140 °C.
The same measure for `CC(=O)c1ccc(OCC(=O)N2CCCC2)cc1`: 122 to 124 °C; for `N#Cc1c(F)cccc1OC(F)F`: 29 to 31 °C; for `O=C(O)c1ccc(NC(=O)C2CC2)s1`: 205 to 207 °C.
For `Cc1ccc(-c2cc(CBr)on2)cc1` the value was 86 to 88 °C; for `Nc1cc(C(F)(F)F)ccc1C(=O)O`, 175 to 176 °C; for `Nc1cc([N+](=O)[O-])ccc1Sc1cccs1`, 94 to 96 °C.
For `O=C(O)C1CC1c1c(Cl)cccc1Cl` (stereo unspecified) the value was 144 to 146 °C; for `COc1ccc(-c2nnc(S)n2N)c(OC)c1`, 200 to 202 °C; for `O=C(O)C=Cc1cccc(OC2CCCCC2)c1`, 96 to 98 °C.
Take `Cc1cc(C(=O)NC2CCCCC2)ccc1N`: the melting point was 178 to 180 °C.
For `N#CCN1CCN(Cc2ccccc2)CC1` the value was 49 to 51 °C; for `Cc1ccc(-n2c(=O)c(N)c(C)n2C)cc1`, 261 to 263 °C; for `O=S(=O)(Cl)c1cc(Cl)cc2c1OCC2`, 105 to 107 °C.
For `CC(C)CN1C(=O)CC(=O)NC1=O`, the melting point was 144 to 146 °C.
The compound `CCOc1cccc(C=CC(=O)O)c1OC1CCCC1` registered a melting point of 133 to 135 °C.
The same measure for `CC(=O)c1cccc(S(=O)(=O)N2CCC(C(=O)O)CC2)c1`: 122 to 124 °C; for `CC(O)c1nc2ccccc2n1C` (stereo unspecified): 111 to 113 °C; for `O=c1[nH]c(-c2ccccn2)no1`: 198 to 200 °C.
Compound `CC(NC(=O)OC(C)(C)C)C(=O)Cc1ccccc1` (stereo unspecified) yielded a melting point of 59 to 61 °C.
Compound `CCN(CC)c1nc2sc(C(=O)O)cc2s1` had a melting point of 191 to 193 °C.
The same measure for `COC(=O)C(c1ccc(F)cc1)N1CCN(C(=O)OC(C)(C)C)CC1` (stereo unspecified): 82 to 84 °C.
For `Cc1nc(Cl)c(C)c(-n2cccn2)n1` the value was 61 to 63 °C; for `CCOc1ccccc1Oc1ccccc1C(=O)O`, 96 to 98 °C; for `COc1ccc(S(=O)(=O)NC(C)(C)C)c(CC(=O)O)c1`, 198 to 200 °C.
For `Nc1ncn(Cc2ccccn2)n1` the value was 113 to 115 °C; for `COc1cccc(-c2cc(N)n(C)n2)c1`, 94 to 96 °C.
`O=C(O)CN1C(=O)C2C3C=CC(C3)C2C1=O` (stereo unspecified) displayed a melting point of 146 to 148 °C.
The same measure for `CSC=CC(=O)O`: 118 to 120 °C; for `Cc1ccc(Nc2nnc(S)s2)cc1`: 219 to 221 °C.
For `Nc1cccc(Cn2cnc3ccccc32)c1` the value was 168 to 170 °C; for `CC(C)c1cc(Br)cc([N+](=O)[O-])c1N`, 39 to 41 °C; for `NNC(=O)C(=O)NCc1ccc(Cl)cc1`, 191 to 193 °C.
For `CN(C)S(=O)(=O)c1cccc(N)c1` the value was 125 to 127 °C; for `O=C(CCl)NCc1cnn(-c2ccccc2)c1`, 110 to 112 °C.
For the compound `CC(=O)Nc1c(Br)cccc1[N+](=O)[O-]`, the melting point lay within 192 to 194 °C.
For `O=C1CCCc2cc(C(=O)CCl)ccc2N1` the value was 154 to 156 °C.
For `O=C(O)CSc1nc(-c2cccnc2)no1` the value was 154 to 156 °C.
The same measure for `NC(=O)c1cccc2c1CCCN2`: 172 to 174 °C; for `O=Cc1sc(N2CCCC2)nc1Cl`: 119 to 121 °C.
On to `CCOc1ccc(S(=O)(=O)Cl)c2ccccc12`, for which the melting point fell in the range of 98 to 100 °C.
For `Nc1nc(C2CC2)ns1` the value was 144 to 146 °C; for `OCCNc1ncnc2ccccc12`, 172 to 174 °C.
For the compound `CS(=O)(=O)Nc1cccc(C(=O)O)c1`, the melting point fell in the range of 230 to 232 °C.
Take `CCCC(=O)Nc1ccc(CN)cc1`: the melting point lay within 85 to 87 °C.
The same measure for `Cc1ccc(-c2nc(-c3ccccc3)sc2CC(=O)O)cc1`: 165 to 167 °C; for `CCNC(=O)c1cccc(O)c1`: 160 to 162 °C.
For `CC(C)CNc1nc(-c2ccccc2[N+](=O)[O-])cs1` the value was 86 to 88 °C; for `Cn1c(N)c(C(=O)CCl)c(=O)n(C)c1=O`, 185 to 187 °C.
The compound `N#CC1COCCN1` (stereo unspecified) came in with a melting point of 76 to 78 °C.
For `ClCC12CC3CC(CC(C3)C1)C2` the value was 38 to 42 °C.
For `CC1CN(S(=O)(=O)CCN)CC(C)O1` (stereo unspecified) the value was 73 to 75 °C; for `CCCCNc1ccc(S(=O)(=O)N2CCCC2)cc1N`, 208 to 210 °C.
For `NC(CCO)c1ccc(F)cc1` (stereo unspecified) the value was 67 to 69 °C.
In turn, `NCC(c1ccc(Cl)cc1Cl)c1c[nH]c2ccccc12` (stereo unspecified) showed a melting point of 130 to 132 °C.
The same measure for `COc1ccccc1C(N)(C(=O)O)C(F)(F)F` (stereo unspecified): 97 to 99 °C.
For `COc1ccc2c(ccn2CC(=O)O)c1` the value was 140 to 142 °C.
Compound `Nc1nnc(Cc2cccc(F)c2)o1` showed a melting point of 146 to 148 °C.
As for `NC(=O)Cn1ccc(=O)c2ccccc21`, the melting point is 294 to 296 °C.
`O=C(O)CCN1C(=O)CCc2cc(F)ccc21` came in with a melting point of 149 to 151 °C.
For `O=c1[nH]c(CN2CCNCC2)nc2ccccc12` the value was 167 to 169 °C.
Regarding `CN(C)S(=O)(=O)c1ccc(-c2csc(N)n2)cc1`, the melting point was in the range of 243 to 245 °C.
The same measure for `COC(=O)Cc1c(C(=O)OC)sc(N)c1C(=O)OC`: 178 to 180 °C; for `CCc1n[nH]c(=O)c(C(=O)O)c1CC`: 154 to 156 °C; for `N#Cc1cc2c([nH]c1=O)CCCC2`: 246 to 248 °C.
For `Cc1cc(N)n(-c2cccc(C(F)(F)F)c2)n1` the value was 88 to 92 °C; for `CS(=O)(=O)CC(=O)c1ccccc1`, 106 to 108 °C.
The same measure for `CCNC(=O)c1ccc(CN)cc1`: 92 to 94 °C.
Consider `NC(=NO)c1ccc(N2CCN(c3ccc(F)cc3)CC2)nc1`, for which the melting point is 191 to 193 °C.
The same measure for `O=C(O)c1ccccc1NCCO`: 142 to 144 °C.
For `CC12CCCC(C(=O)O)(CCC1)C2` the value was 144 to 146 °C; for `O=C(O)c1cc(-c2cccnc2)nc2nc(N3CCCC3)sc12`, 329 to 331 °C; for `CN(C)Cc1ccc(C(=O)NN)o1`, 116 to 118 °C.
The same measure for `COCCCn1cc(C(=O)c2cc(F)ccc2O)cc(C#N)c1=O`: 126 to 128 °C; for `Cn1cnc(S(=O)(=O)NC2CCCC2)c1Cl`: 136 to 138 °C; for `CN(CC(=O)O)S(=O)(=O)c1cccs1`: 152 to 156 °C.
The compound `CC1(c2ccccc2F)NC(=O)NC1=O` (stereo unspecified) had a melting point of 214 to 216 °C.
For `Cc1cc(=O)c(C(=O)O)n[nH]1`, the melting point is 193 to 195 °C.
The same measure for `O=C(O)C1CCCN(C(=O)c2ccc3[nH]ncc3c2)C1` (stereo unspecified): 239 to 241 °C; for `O=C1COc2c1ccc(Cl)c2Cl`: 141 to 143 °C; for `Cc1cc(C=O)c(C)n1-c1ccc(Cl)c(C(F)(F)F)c1`: 88 to 90 °C.
For `c1cnnc(NCC2CNCCO2)c1` (stereo unspecified) the value was 148 to 150 °C; for `O=C(O)C(F)(F)c1c[nH]c(=O)[nH]c1=O`, 188 to 190 °C.
For `CC(C)(C)C(=O)Cn1cc(C(=O)O)nn1` the value was 198 to 200 °C.
In turn, `CC(C)(C)OC(=O)NCCCCCCC(=O)O` yielded a melting point of 44 to 46 °C.
For `Cc1c(F)ccc2c1NC(=O)C2=O` the value was 139 to 141 °C; for `Cn1ncc2ccc(C#N)cc21`, 104 to 106 °C.
Take `CC1(c2ccsc2)NC(=O)NC1=O` (stereo unspecified): the melting point lay within 151 to 153 °C.
The same measure for `CN1C(=O)CNC(=O)c2ccccc21`: 175 to 177 °C.
For `Cn1cc(C(=O)CBr)c2ccccc21` the value was 132 to 134 °C.
